In patent US4442044A, “Process for preparing monoesters and diesters of N-alkyl substituted amino methyl phosphonic acid” (priority 1983, dated 1984):

Experiments:
Test in all cases: post-emergent herbicidal activity, greenhouse
Assay type in all cases: in vivo
Barnyardgrass = system: Barnyardgrass
Summary of the method: (§1)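 Post-emergence foliar spray at tabulated application rates, using aliquots of a 1.0% stock in acetone, THF or water plus ~0.4% emulsifier, applied to 2–3-week-old greenhouse plants. Plant injury was rated relative to controls roughly two and four weeks after treatment.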

Canada Thistle = details: Table I, 4 WAT
Summary of the method: as §1

Cocklebur = system: Cocklebur
Summary of the method: as §1

Crabgrass = details: Table II
Summary of the method: as §1

Downy Brome = system: Downy Brome
Summary of the method: as §1

Hemp Sesbania = details: Table II
Summary of the method: as §1

Johnsongrass = details: Table I, 4 WAT
Summary of the method: as §1

Lambsquarters = system: Lambsquarters
Summary of the method: as §1

Morningglory = system: Morningglory
Summary of the method: as §1

Panicum Spp = details: Table II
Summary of the method: as §1

Quackgrass = details: Table I, 4 WAT
Summary of the method: as §1

Rice = details: Table II
Summary of the method: as §1

Smartweed = system: Smartweed
Summary of the method: as §1

Sorghum = details: Table II
Summary of the method: as §1

Soybean = details: Table II
Summary of the method: as §1

Sugar Beet = details: Table II
Summary of the method: as §1

Velvetleaf = system: Velvetleaf
Summary of the method: as §1

Wheat = details: Table II
Summary of the method: as §1

Wild Buckwheat = details: Table II
Summary of the method: as §1

Yellow Nutsedge = details: Table I, 4 WAT
Summary of the method: as §1

CC(C#N)OP(=O)(CNCC#N)OC(C)C#N (stereo not drawn) [Example 12, phosphonic acid, [[(cyanomethyl)amino]-methyl],bis 1-cyanoethyl ester]
post-emergent herbicidal activity index (Barnyardgrass; Table I, 4 WAT, 5.6 kg/h): 2 (50-74% control) | post-emergent herbicidal activity index (Barnyardgrass; Table I, 4 WAT, 11.2 kg/h): 3 (75-99% control) | post-emergent herbicidal activity index (Barnyardgrass; Table II, 2 WAT, 0.28 kg/h): 0 (0-24% control) | post-emergent herbicidal activity index (Barnyardgrass; Table II, 4 WAT, 1.12 kg/h): 1 (25-49% control) | post-emergent herbicidal activity index (Barnyardgrass; Table II, 4 WAT, 5.6 kg/h): 3 (75-99% control) | post-emergent herbicidal activity index (Canada Thistle; 5.6 kg/h): 2 (50-74% control) | post-emergent herbicidal activity index (Canada Thistle; 11.2 kg/h): 2 (50-74% control) | post-emergent herbicidal activity index (Cocklebur; Table I, 4 WAT, 5.6 kg/h): 2 (50-74% control) | post-emergent herbicidal activity index (Cocklebur; Table I, 4 WAT, 11.2 kg/h): 2 (50-74% control) | post-emergent herbicidal activity index (Cocklebur; Table II, 2 WAT, 0.28 kg/h): 0 (0-24% control) | post-emergent herbicidal activity index (Cocklebur; Table II, 4 WAT, 1.12 kg/h): 1 (25-49% control) | post-emergent herbicidal activity index (Cocklebur; Table II, 4 WAT, 5.6 kg/h): 3 (75-99% control) | post-emergent herbicidal activity index (Crabgrass; 2 WAT, 0.28 kg/h): 0 (0-24% control) | post-emergent herbicidal activity index (Crabgrass; 4 WAT, 1.12 kg/h): 2 (50-74% control) | post-emergent herbicidal activity index (Crabgrass; 4 WAT, 5.6 kg/h): 2 (50-74% control) | post-emergent herbicidal activity index (Downy Brome; Table I, 4 WAT, 5.6 kg/h): 2 (50-74% control) | post-emergent herbicidal activity index (Downy Brome; Table I, 4 WAT, 11.2 kg/h): 1 (25-49% control) | post-emergent herbicidal activity index (Downy Brome; Table II, 2 WAT, 0.28 kg/h): 0 (0-24% control) | post-emergent herbicidal activity index (Downy Brome; Table II, 4 WAT, 1.12 kg/h): 0 (0-24% control) | post-emergent herbicidal activity index (Downy Brome; Table II, 4 WAT, 5.6 kg/h): 3 (75-99% control) | post-emergent herbicidal activity index (Hemp Sesbania; 2 WAT, 0.28 kg/h): 0 (0-24% control) | post-emergent herbicidal activity index (Hemp Sesbania; 4 WAT, 1.12 kg/h): 0 (0-24% control) | post-emergent herbicidal activity index (Hemp Sesbania; 4 WAT, 5.6 kg/h): 0 (0-24% control) | post-emergent herbicidal activity index (Johnsongrass; 5.6 kg/h): 4 (100% control) | post-emergent herbicidal activity index (Johnsongrass; 11.2 kg/h): 3 (75-99% control) | post-emergent herbicidal activity index (Lambsquarters; Table I, 4 WAT, 5.6 kg/h): 3 (75-99% control) | post-emergent herbicidal activity index (Lambsquarters; Table I, 4 WAT, 11.2 kg/h): 2 (50-74% control) | post-emergent herbicidal activity index (Lambsquarters; Table II, 2 WAT, 0.28 kg/h): 1 (25-49% control) | post-emergent herbicidal activity index (Lambsquarters; Table II, 4 WAT, 1.12 kg/h): 2 (50-74% control) | post-emergent herbicidal activity index (Lambsquarters; Table II, 4 WAT, 5.6 kg/h): 4 (100% control) | post-emergent herbicidal activity index (Morningglory; Table I, 4 WAT, 5.6 kg/h): 2 (50-74% control) | post-emergent herbicidal activity index (Morningglory; Table I, 4 WAT, 11.2 kg/h): 2 (50-74% control) | post-emergent herbicidal activity index (Morningglory; Table II, 2 WAT, 0.28 kg/h): 0 (0-24% control) | post-emergent herbicidal activity index (Morningglory; Table II, 4 WAT, 1.12 kg/h): 1 (25-49% control) | post-emergent herbicidal activity index (Panicum Spp; 2 WAT, 0.28 kg/h): 0 (0-24% control) | post-emergent herbicidal activity index (Panicum Spp; 4 WAT, 1.12 kg/h): 0 (0-24% control) | post-emergent herbicidal activity index (Panicum Spp; 4 WAT, 5.6 kg/h): 1 (25-49% control) | post-emergent herbicidal activity index (Quackgrass; 5.6 kg/h): 1 (25-49% control) | post-emergent herbicidal activity index (Quackgrass; 11.2 kg/h): 2 (50-74% control) | post-emergent herbicidal activity index (Rice; 2 WAT, 0.28 kg/h): 0 (0-24% control) | post-emergent herbicidal activity index (Rice; 4 WAT, 1.12 kg/h): 0 (0-24% control) | post-emergent herbicidal activity index (Rice; 4 WAT, 5.6 kg/h): 2 (50-74% control) | post-emergent herbicidal activity index (Smartweed; Table I, 4 WAT, 5.6 kg/h): 4 (100% control) | post-emergent herbicidal activity index (Smartweed; Table I, 4 WAT, 11.2 kg/h): 4 (100% control) | post-emergent herbicidal activity index (Smartweed; Table II, 2 WAT, 0.28 kg/h): 0 (0-24% control) | post-emergent herbicidal activity index (Smartweed; Table II, 4 WAT, 1.12 kg/h): 0 (0-24% control) | post-emergent herbicidal activity index (Smartweed; Table II, 4 WAT, 5.6 kg/h): 2 (50-74% control) | post-emergent herbicidal activity index (Sorghum; 2 WAT, 0.28 kg/h): 1 (25-49% control) | post-emergent herbicidal activity index (Sorghum; 4 WAT, 1.12 kg/h): 3 (75-99% control) | post-emergent herbicidal activity index (Sorghum; 4 WAT, 5.6 kg/h): 4 (100% control) | post-emergent herbicidal activity index (Soybean; 2 WAT, 0.28 kg/h): 0 (0-24% control) | post-emergent herbicidal activity index (Soybean; 4 WAT, 1.12 kg/h): 1 (25-49% control) | post-emergent herbicidal activity index (Soybean; 4 WAT, 5.6 kg/h): 1 (25-49% control) | post-emergent herbicidal activity index (Sugar Beet; 2 WAT, 0.28 kg/h): 0 (0-24% control) | post-emergent herbicidal activity index (Sugar Beet; 4 WAT, 1.12 kg/h): 0 (0-24% control) | post-emergent herbicidal activity index (Sugar Beet; 4 WAT, 5.6 kg/h): 1 (25-49% control) | post-emergent herbicidal activity index (Velvetleaf; Table I, 4 WAT, 5.6 kg/h): 2 (50-74% control) | post-emergent herbicidal activity index (Velvetleaf; Table I, 4 WAT, 11.2 kg/h): 2 (50-74% control) | post-emergent herbicidal activity index (Velvetleaf; Table II, 2 WAT, 0.28 kg/h): 0 (0-24% control) | post-emergent herbicidal activity index (Velvetleaf; Table II, 4 WAT, 1.12 kg/h): 1 (25-49% control) | post-emergent herbicidal activity index (Velvetleaf; Table II, 4 WAT, 5.6 kg/h): 2 (50-74% control) | post-emergent herbicidal activity index (Wheat; 2 WAT, 0.28 kg/h): 0 (0-24% control) | post-emergent herbicidal activity index (Wheat; 4 WAT, 1.12 kg/h): 0 (0-24% control) | post-emergent herbicidal activity index (Wheat; 4 WAT, 5.6 kg/h): 2 (50-74% control) | post-emergent herbicidal activity index (Wild Buckwheat; 2 WAT, 0.28 kg/h): 0 (0-24% control) | post-emergent herbicidal activity index (Wild Buckwheat; 4 WAT, 1.12 kg/h): 1 (25-49% control) | post-emergent herbicidal activity index (Wild Buckwheat; 4 WAT, 5.6 kg/h): 0 (0-24% control) | post-emergent herbicidal activity index (Yellow Nutsedge; 5.6 kg/h): 3 (75-99% control) | post-emergent herbicidal activity index (Yellow Nutsedge; 11.2 kg/h): 3 (75-99% control)
